# Laboratory results: PMC3436892, “Novel African Trypanocidal Agents: Membrane Rigidifying Peptides” (PLoS ONE, 2012)
# Tests used:
# [1] = Circular dichroism spectroscopy; assay type: physicochemical
# Method: Spectra were recorded with a Jasco J-710 spectropolarimeter in a 1 mm quartz cuvette. Measurements were performed with a final concentration of 15 µM SHP-1 added from a stock of ethanol-solubilized peptide (final ethanol concentration 7.5 %) in 10 mM K2PO4, 50 mM Na2PO4, pH 7.5. Lipid associated peptide spectra were recorded with the addition of 0.1 µm unilamellar egg phosphatidylcholine liposomes at a peptide to lipid ration of 0.3. Spectra were averaged from four scans and the appropriate buffer scans were subtracted.
# [2] = test system: metacyclic T. b. brucei; assay: 2 h in vitro killing assay, metacyclic form; assay type: cell-based, Trypanosoma brucei brucei strain STIB247; conditions: 2 h incubation, 1×10^4 cells/mL, HMI 9 with 10 % fetal bovine serum, live cells scored by hemocytometer, at least duplicate (Fig. 1a)
# Method: (§1) Light microscopy based trypanosome killing assays were performed as previously described in detail, [10], [21], [22]. Metacyclic Trypanosoma brucei brucei strain STIB247 were obtained from dissection of the salivary glands of infected tsetse flies. Newly hatched Glossina morsitans morsitans (24–48 h post eclosion) were fed two defibrinated horse blood meals containing 2×10^6 mL^-1 trypanosomes on two separate days. Flies were then maintained at 25°C in 75 % relative humidity and fed maintenance blood meals three times per week. Following day 20–30, flies were harvested and salivary glands were dissected out and placed into HMI 9 media containing 10 % fetal bovine serum for 30 minutes. Metacyclic cells were expelled into the media by the residual peristalsis of the salivary glands. Cells were collected via centrifugation and maintained in HMI 9 media with 20 % fetal bovine serum at 37°C in 5 % CO2 until use. Killing assays were conducted with 1×10^4 cells/mL in HMI 9 media containing 10 % fetal bovine serum. Live cells were scored via hemocytometer after 2 h incubation. Trypanosoma vivax strain ILRAD V34 and Trypanosoma congolense strain IL3000 were grown from stabilites in donor ICR mouse (Harlan, United Kingdom). […] Cells were incubated at 37°C for 2 h and live cells were scored visually via hemocytometer. […]
# [3] = test system: BSF T. b. brucei; conditions: veterinary and human pathogenic BSF T. brucei; cited from earlier work
# Description: Specificity of SHP is mediated by a high degree of fluidity in the plasma membrane of BSF cells. […] Human cells, including erythrocytes, are refractory to SHP concentrations orders of magnitude higher than necessary to kill BSF T. brucei.
# [4] = test system: Live BSF T. b. brucei; assay: Trypanosome motility scoring by DIC microscopy; assay type: cell-based, Trypanosoma brucei brucei; conditions: 40 µM SHP, 37°C, 1×10^7 cells/mL, HMI 9 with 10 % fetal bovine serum, DIC microscopy, at least duplicate (Fig. 2d)
# Method: All images and videos were acquired with an Axio Observer Z1 equipped with an AxioCam MRm controlled by AxioVision 4.6 software. Videos were acquired with live cells at a density of 1×10^7 cells/mL in HMI 9 media with 10 % fetal bovine serum, incubated with 40 µM SHP at 37°C. Trypanosomes were visualized at magnification 63 × and videos were recorded with 100-ms acquisition times. The motility of BSF trypanosomes was scored directly or from video playback. Trypanosome motility was classified as normal, hyperactive or constricted as described previously. An example of a trypanosome scored as normal is shown in Movie S1. […] Data in figure 2D is shown as the average of at least duplicate trials with standard deviations.
# [5] = test system: Bloodstream developmental forms of T. congolense; assay: 2 h in vitro killing assay, T. congolense; assay type: cell-based, Trypanosoma congolense strain IL3000; conditions: 37°C, 1×10^7 cells/mL, HMI 9 with 20 % bovine serum, hemocytometer, at concentrations similar to BSF T. brucei (Fig. 1b)
# Method: as §1
# [6] = test system: Live BSF T. b. brucei; conditions: previously reported; cited from earlier work
# Description: Treatment of BSF African trypanosomes with SHP results in multiple physiological alterations. Addition of SHP-1 to BSF trypanosomes, which were subsequently immobilized in gelatin, decreases the fraction of laterally mobile surface exposed VSG (Fig. 2c). This effect may be directly due to increased membrane rigidity, or indirectly due to a decrease in the mobility of membrane spanning proteins and potential interactions with the VSG. Another physiological consequence, that may or may not be related to membrane rigidification, is SHP-induced changes in cell motility. Previously we reported that ...
# [7] = test system: Bloodstream developmental forms of T. vivax; assay: 2 h in vitro killing assay, T. vivax; assay type: cell-based, Trypanosoma vivax strain ILRAD V34; conditions: 37°C, 1×10^7 cells/mL, HMI 9 with 20 % bovine serum, hemocytometer, at concentrations similar to BSF T. brucei (Fig. 1b)
# Method: as §1
# [8] = test system: interfacial region of the plasma membrane of BSF T. b. brucei; assay: TMA-DPH fluorescence anisotropy (interfacial membrane rigidity); assay type: cell-based, Trypanosoma brucei brucei; conditions: live BSF cells 3×10^6 cells/mL in PBS, 0.5 µM TMA-DPH, 37°C, increasing SHP concentrations, triplicate (Fig. 2b)
# Method: The plasma membrane rigidity of live T. b. brucei was determined by measuring the fluorescence depolarization of diphenyl-1,3,5- hexatriene p-toluenesulfonate (DPH) or 1-(4-trimethylammoniumphenyl)-6-diphenyl-1,3,5- hexatriene p-toluenesulfonate (TMA-DPH; Invitrogen T204). Cells were washed 3 times with and resuspended in phosphate buffered saline at a density of 3×10^6 cells/mL. The anisotropic probes were added to a final concentration of 0.5 µM and allowed to intercalate into the cell membrane for 1 h in the dark. Anisotropic values were acquired via the software function of a PerkinElmer Life Sciences LS55 spectrofluorometer. Samples were excited at 358 nm, and emission was read at 430 nm, with 10-nm excitation and emission slit widths. Temperature was maintained at 37°C by means of the PerkinElmer LS55 Biokinetics accessory. Data were corrected for light scattering with an unlabeled sample of cells, and anisotropy was calculated according to the equation r = (IVV - GIVH)/(IVV + 2GIVH), where r is the anisotropy value, IVV is the emission intensity acquired with the excitation- and emission-polarizing filters set vertically, G is the instrument correction factor, and IVH is the emission intensity acquired with the excitation-polarizing filter set vertically and the emission-polarizing filter set horizontally. […]
sequence,measurement,setting,value
"SDLGAVISLLLWGRQLFA [SHP-1, trypanocidal small hydrophobic peptide derived from an apolipoprotein, with characteristics of a secretory signal peptide]",secondary structure in the presence of lipid (CD),"[1]; 15 µM peptide with 0.1 µm unilamellar egg phosphatidylcholine liposomes, peptide to lipid ratio 0.3, pH 7.5, peak 193 nm, minimum 208 nm",α-helical structure
same,secondary structure in solution (CD),"[1]; 15 µM peptide, 7.5 % ethanol, 10 mM K2PO4, 50 mM Na2PO4, pH 7.5, peak 195 nm, crossover about 205 nm, minimum 218 nm",β-sheet conformation
same,killing activity against metacyclic T. b. brucei,[2],no killing activity
same,susceptibility of BSF T. brucei to killing,[3],uniquely susceptible to killing
same,constriction of motility following hyperactivation,[4],subsequent constriction
same,hyperactivation of motility,[4],hyperactivation
same,susceptibility of BSF T. congolense to killing,[5],susceptible to killing
same,effect on motility of BSF trypanosomes,[6],initial hyperactivation followed by constricted motility and death
same,susceptibility of BSF T. vivax to killing,[7],susceptible to killing
same,interfacial rigidity of the plasma membrane (TMA-DPH fluorescence depolarization),[8],increased the interfacial rigidity
